For ten compounds, Ki results are on record in patent publication US8921376B2, “Pyrrolopyridines useful as inhibitors of protein kinase” (Vertex Pharmaceuticals Incorporated, priority 2005, dated 2014).

Molecules are shown by their SMILES.

What all share (type): biochemical
Holding throughout (conditions): Table 6; enzyme inhibition data (Ki)

One test addresses T1, JAK3 (Homo sapiens, UniProt P52333).
T1 sequence (P52333 1-1124): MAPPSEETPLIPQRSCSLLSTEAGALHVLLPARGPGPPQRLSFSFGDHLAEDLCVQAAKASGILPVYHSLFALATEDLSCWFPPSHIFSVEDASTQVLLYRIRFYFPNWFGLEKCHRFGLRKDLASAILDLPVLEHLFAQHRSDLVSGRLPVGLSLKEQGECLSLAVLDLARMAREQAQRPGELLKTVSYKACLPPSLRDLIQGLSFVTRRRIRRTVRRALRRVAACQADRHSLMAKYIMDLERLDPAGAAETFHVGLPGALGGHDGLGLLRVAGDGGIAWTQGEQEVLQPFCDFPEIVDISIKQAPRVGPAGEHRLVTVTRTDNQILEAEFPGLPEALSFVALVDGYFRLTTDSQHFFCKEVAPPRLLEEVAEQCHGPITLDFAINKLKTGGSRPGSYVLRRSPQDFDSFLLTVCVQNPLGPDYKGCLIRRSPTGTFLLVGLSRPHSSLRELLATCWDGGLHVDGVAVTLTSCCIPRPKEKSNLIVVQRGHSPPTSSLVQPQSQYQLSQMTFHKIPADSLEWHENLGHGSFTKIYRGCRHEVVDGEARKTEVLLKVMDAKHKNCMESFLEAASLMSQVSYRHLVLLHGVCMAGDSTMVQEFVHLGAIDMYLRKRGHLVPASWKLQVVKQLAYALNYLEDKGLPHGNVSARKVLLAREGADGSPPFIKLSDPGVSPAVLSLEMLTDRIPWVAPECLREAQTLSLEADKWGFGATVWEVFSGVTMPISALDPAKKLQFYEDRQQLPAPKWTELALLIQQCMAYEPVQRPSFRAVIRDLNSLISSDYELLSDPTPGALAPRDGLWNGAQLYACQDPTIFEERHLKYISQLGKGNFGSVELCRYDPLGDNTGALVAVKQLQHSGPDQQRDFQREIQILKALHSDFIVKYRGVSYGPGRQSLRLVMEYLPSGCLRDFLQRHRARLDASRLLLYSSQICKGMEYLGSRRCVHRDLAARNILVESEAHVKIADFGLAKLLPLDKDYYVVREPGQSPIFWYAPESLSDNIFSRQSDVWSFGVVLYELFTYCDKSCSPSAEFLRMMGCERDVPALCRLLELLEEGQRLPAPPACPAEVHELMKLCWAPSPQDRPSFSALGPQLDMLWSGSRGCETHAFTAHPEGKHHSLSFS
Description: JAK3 inhibition assay (33P incorporation into poly(Glu)4Tyr). Put shortly: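 After TCA quench and filter harvest, scintillation counting of 33P measured phosphorylation of poly(Glu)4Tyr (1 μM) by 1 nM JAK3. The 20-min, 25° C. reaction contained 5 μM ATP (200 μCi/μmole) in pH 7.4 HEPES buffer with 10 mM MgCl2.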

The next test has as its target JAK2 (Homo sapiens, UniProt O60674). Description: JAK2 inhibition assay (as Example 3 with JAK-2 enzyme). Put shortly:
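In HEPES pH 7.4 buffer with 10 mM MgCl2, 1 mM DTT, 25 mM NaCl and 0.01% BSA, JAK2 enzyme phosphorylated poly(Glu)4Tyr (final 15 μM) using 33P-ATP (final 12 μM) for 20 min at room temperature (25 °C). Reactions stopped with TCA; incorporated 33P measured by scintillation after filtration.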

Another test addresses ROCK I (Homo sapiens, UniProt Q13464). In words: ROCK-I inhibition assay (radioactive enzyme assay, MBP substrate). An outline of the steps:
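Human ROCK at 5 nM phosphorylated 27 μM myelin basic protein with 13 μM [γ-33P]ATP (final) in HEPES pH 7.5, MgCl2, NaCl, DTT and 1.5% DMSO. Reactions ran 2 h at room temperature before TCA quench and filter-plate scintillation counting. After background subtraction, data were fit to give Ki(app).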

The Ki is a measure of affinity in units of concentration, obtained from inhibition or displacement.

Sequence of ROCK I (Q13464 whole entry): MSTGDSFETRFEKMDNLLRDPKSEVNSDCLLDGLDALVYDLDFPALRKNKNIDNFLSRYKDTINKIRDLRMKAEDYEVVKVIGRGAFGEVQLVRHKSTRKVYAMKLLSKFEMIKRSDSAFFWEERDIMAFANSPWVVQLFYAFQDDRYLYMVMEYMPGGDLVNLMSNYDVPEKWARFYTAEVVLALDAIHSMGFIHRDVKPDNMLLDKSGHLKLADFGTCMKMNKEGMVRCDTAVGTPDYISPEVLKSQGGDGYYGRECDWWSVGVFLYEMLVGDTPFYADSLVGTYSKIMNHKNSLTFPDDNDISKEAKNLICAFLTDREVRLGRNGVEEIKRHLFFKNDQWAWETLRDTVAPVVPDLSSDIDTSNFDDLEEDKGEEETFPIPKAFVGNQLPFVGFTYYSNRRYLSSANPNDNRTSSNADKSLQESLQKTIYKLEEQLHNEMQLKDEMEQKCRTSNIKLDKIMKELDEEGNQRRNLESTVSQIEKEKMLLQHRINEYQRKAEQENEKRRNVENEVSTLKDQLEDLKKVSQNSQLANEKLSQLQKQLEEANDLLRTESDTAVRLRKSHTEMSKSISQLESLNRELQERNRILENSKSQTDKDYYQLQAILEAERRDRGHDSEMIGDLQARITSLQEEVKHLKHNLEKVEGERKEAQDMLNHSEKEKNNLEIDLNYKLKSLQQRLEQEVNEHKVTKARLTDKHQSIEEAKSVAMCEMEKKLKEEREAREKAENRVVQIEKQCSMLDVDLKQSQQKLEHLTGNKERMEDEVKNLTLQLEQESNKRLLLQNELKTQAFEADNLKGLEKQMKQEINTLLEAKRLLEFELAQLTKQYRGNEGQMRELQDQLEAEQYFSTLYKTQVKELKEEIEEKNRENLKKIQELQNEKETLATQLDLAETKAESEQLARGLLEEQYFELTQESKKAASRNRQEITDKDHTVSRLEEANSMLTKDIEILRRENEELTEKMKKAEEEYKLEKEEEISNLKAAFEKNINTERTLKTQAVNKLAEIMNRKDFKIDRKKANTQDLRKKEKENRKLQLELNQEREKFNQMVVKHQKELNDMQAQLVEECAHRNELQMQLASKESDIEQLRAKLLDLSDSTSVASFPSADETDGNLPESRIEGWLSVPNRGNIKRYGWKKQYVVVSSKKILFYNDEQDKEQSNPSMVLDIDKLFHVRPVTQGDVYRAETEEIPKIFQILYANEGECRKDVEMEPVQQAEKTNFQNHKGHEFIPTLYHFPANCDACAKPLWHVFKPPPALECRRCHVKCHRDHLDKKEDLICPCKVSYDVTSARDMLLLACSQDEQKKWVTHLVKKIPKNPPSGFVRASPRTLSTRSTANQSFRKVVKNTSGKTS
Sequence of JAK2 (O60674 whole entry): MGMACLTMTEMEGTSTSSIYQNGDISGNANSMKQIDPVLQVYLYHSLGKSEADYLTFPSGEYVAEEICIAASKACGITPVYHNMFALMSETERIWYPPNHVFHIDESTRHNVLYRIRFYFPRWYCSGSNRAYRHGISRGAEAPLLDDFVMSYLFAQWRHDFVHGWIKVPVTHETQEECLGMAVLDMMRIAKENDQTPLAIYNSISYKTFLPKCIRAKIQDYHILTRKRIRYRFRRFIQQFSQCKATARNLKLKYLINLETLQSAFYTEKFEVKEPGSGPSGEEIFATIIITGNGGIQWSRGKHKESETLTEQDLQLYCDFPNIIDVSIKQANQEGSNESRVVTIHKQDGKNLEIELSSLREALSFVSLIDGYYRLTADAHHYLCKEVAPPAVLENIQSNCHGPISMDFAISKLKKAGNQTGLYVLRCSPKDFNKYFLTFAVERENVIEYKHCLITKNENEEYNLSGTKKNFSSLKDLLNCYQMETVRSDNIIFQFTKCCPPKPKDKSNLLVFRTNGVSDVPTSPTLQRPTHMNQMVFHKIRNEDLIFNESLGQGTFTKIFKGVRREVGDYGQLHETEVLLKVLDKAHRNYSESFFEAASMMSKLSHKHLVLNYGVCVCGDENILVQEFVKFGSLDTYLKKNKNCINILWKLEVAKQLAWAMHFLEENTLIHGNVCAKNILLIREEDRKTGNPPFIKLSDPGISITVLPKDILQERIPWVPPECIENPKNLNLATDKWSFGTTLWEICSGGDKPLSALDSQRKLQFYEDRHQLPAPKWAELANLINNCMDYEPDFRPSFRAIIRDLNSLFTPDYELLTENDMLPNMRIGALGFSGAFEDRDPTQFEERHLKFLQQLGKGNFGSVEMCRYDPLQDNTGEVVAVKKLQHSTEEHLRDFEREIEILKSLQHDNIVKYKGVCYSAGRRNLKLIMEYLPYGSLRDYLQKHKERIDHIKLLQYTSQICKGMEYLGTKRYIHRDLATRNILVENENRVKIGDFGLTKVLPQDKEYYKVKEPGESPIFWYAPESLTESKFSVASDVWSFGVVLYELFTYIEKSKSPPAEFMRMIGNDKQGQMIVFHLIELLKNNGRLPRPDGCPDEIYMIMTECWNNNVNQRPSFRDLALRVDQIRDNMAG

For the compound `C[C@@H]1CC[C@@H](C)N1C(=O)c1csc(-c2ccnc3[nH]ccc23)n1` [compound 416], the Ki at JAK3, at JAK2 and at ROCK I was under 0.5 µM throughout.

Regarding `C[C@@H]1CC[C@H](C)N1C(=O)c1csc(-c2ccnc3[nH]ccc23)n1` [compound 417], the Ki on JAK3, on JAK2 and on ROCK I was under 0.5 µM in each case.

`O=C(c1csc(-c2ccnc3[nH]ccc23)n1)N1CCCC1` [compound 418]: the results for the Ki at JAK3, on JAK2 and at ROCK I were 0.5 to 5 µM, under 0.5 µM and under 0.5 µM, respectively.

With `CC1CCCN1C(=O)c1csc(-c2ccnc3[nH]ccc23)n1` (stereo not drawn) [compound 419], the Ki at JAK3, on JAK2 and at ROCK I was under 0.5 µM throughout.

`CC1CCCCN1C(=O)c1csc(-c2ccnc3[nH]ccc23)n1` (stereo not drawn) [compound 420]: the inhibition constant Ki on JAK3, on JAK2 and on ROCK I was under 0.5 µM throughout.

`C[C@@H]1CCC[C@H](C)N1C(=O)c1csc(-c2ccnc3[nH]ccc23)n1` [compound 421]: the Ki on JAK3, at JAK2 and at ROCK I was under 0.5 µM in each case.

Turning to `CCOC(=O)[C@@H]1[C@@H](C)CCN1C(=O)c1csc(-c2ccnc3[nH]ccc23)n1` [compound 422], the inhibition constant Ki at JAK3, on JAK2 and at ROCK I was 0.5 to 5 µM each time.

Turning to `CCC1CCCCN1C(=O)c1csc(-c2ccnc3[nH]ccc23)n1` (stereo not drawn) [compound 423], the Ki on JAK3, at JAK2 and at ROCK I was under 0.5 µM each time.

`O=C(Cn1ccc2cnc(-c3ccnc4[nH]ccc34)nc21)NCC(F)(F)F` [compound 424]: the Ki was under 0.5 µM on JAK3, under 0.5 µM on JAK2 and over 4 µM at ROCK I.

`CC(C)[C@H](C(=O)NCC(F)(F)F)n1ccc2cnc(-c3ccnc4[nH]ccc34)nc21` [compound 425]: the inhibitory constant (Ki) is under 0.5 µM on JAK3, under 0.5 µM on JAK2 and over 4 µM on ROCK I.
